What all share (format): functional
Assay [1] relates to PANC-1. The assay is described as follows: Preferential cytotoxicity against human PANC-1 cells in nutrient-deprived medium.
For assay [2], the system named is PANC-1. The assay is described as follows: Inhibition of colony formation in human PANC1 cells assessed as colony area at 40 uM incubated for 24 hrs in normal nutrient DMEM media followed by replacement with fresh media and further incubated for 10 days (reference value: 52%). Set-up: scale not given: the % may be the effect or the level left.
The subject of assay [3] is PANC-1. The assay is described as follows: Inhibition of colony formation in human PANC1 cells assessed as colony area at 10 uM incubated for 24 hrs in normal nutrient DMEM media followed by replacement with fresh media and further incubated for 10 days (reference value: 52%). Further details: scale not given: the % may be the effect or the level left.
The test system of assay [4] is PANC-1. The assay can be described thus: Inhibition of colony formation in human PANC1 cells assessed as colony area at 20 uM incubated for 24 hrs in normal nutrient DMEM media followed by replacement with fresh media and further incubated for 10 days (reference value: 52%). Further details: scale not given: the % may be the effect or the level left.
The test system of assay [5] is PANC-1. The assay is described as follows: Induction of cell death in human PANC-1 cells assessed as alteration in cell morphology incubated for 24 hrs in nutrient-deprived medium by ethidium bromide/acridine orange staining based analysis. The conditions noted are these: dose 10-20 µM.
The subject of assay [6] is PANC-1. The assay is described as follows: Induction of cell death in human PANC-1 cells assessed as increase in cells emitting red fluorescence incubated for 24 hrs in nutrient-deprived medium by ethidium bromide/acridine orange staining based analysis. To be noted: dose 10-20 µM.

Drawing on ChEMBL document CHEMBL5252614, “Dioncophyllidine E: The first configurationally semi-stable, 7,3'-coupled naphthyldihydroisoquinoline alkaloid, from Ancistrocladus abbreviatus, with antiausterity activity against PANC-1 human pancreatic cancer cells” (2023), this text covers PC50 and Activity for one compound.

SMILES strings stand for the structures.

Turning to `COc1cccc2cc(C)c(-c3ccc4c(c3O)C(C)=N[C@H](C)C4)c(O)c12`, the PC50 in the assay with PANC-1 [1] was 7.4 µM. Besides, the Activity is 24% in the assay on PANC-1 [2]; 47% in the assay on PANC-1 [3]; 38% in the assay on PANC-1 [4]; “Dose-Dependent Effect” with PANC-1 [5]; “Dose-Dependent Effect” in the assay on PANC-1 [6].
